Laboratory results: patent US20030087906A1, “NITROGEN SUBSTITUTED BIARYL PURINE DERIVATIVES AS POTENT ANTIPROLIFERATIVE AGENTS” (priority 2001, published 2003)

Key:
SF-268 = assay: NCI 60-cell line growth inhibition assay; type: cell-based; conditions: Homo sapiens
SNB-75 = assay: NCI 60-cell line growth inhibition assay; type: cell-based; conditions: Homo sapiens
RXF 393 = assay: NCI 60-cell line growth inhibition assay; type: cell-based; conditions: Homo sapiens
HOP-62 = assay: NCI 60-cell line growth inhibition assay; type: cell-based; conditions: Homo sapiens
[1] = test system: Tumor Cells in Hollow Fibers; assay: NCI Hollow Fiber Assay (in vivo evaluation); conditions: for IP Score: IP fibers; for SC score: SC fibers
NCI-H460 = assay: NCI 60-cell line growth inhibition assay; type: cell-based; conditions: Homo sapiens; Non-Small Cell Lung, NCI-H460
A549/ATCC = assay: NCI 60-cell line growth inhibition assay; type: cell-based; conditions: Homo sapiens
MALME-3M = assay: NCI 60-cell line growth inhibition assay; type: cell-based; conditions: Homo sapiens; Melanoma, MALME-3M
MDA-MB-231/ATCC = assay: NCI 60-cell line growth inhibition assay; type: cell-based; conditions: Homo sapiens
CAKI-1 = assay: NCI 60-cell line growth inhibition assay; type: cell-based; conditions: Homo sapiens; Renal, CAKI-1
OVCAR-4 = assay: NCI 60-cell line growth inhibition assay; type: cell-based; conditions: Homo sapiens
A498 = assay: NCI 60-cell line growth inhibition assay; type: cell-based; conditions: Homo sapiens
NCI-H226 = assay: NCI 60-cell line growth inhibition assay; type: cell-based; conditions: Homo sapiens
OVCAR-5 = assay: NCI 60-cell line growth inhibition assay; type: cell-based; conditions: Homo sapiens
MDA-N = assay: NCI 60-cell line growth inhibition assay; type: cell-based; conditions: Homo sapiens
RPMI-8226 = assay: NCI 60-cell line growth inhibition assay; type: cell-based; conditions: Homo sapiens
T-47D = assay: NCI 60-cell line growth inhibition assay; type: cell-based; conditions: Homo sapiens, T47D
HS 578T = assay: NCI 60-cell line growth inhibition assay; type: cell-based; conditions: Homo sapiens
HCT-116 = assay: NCI 60-cell line growth inhibition assay; type: cell-based; conditions: Homo sapiens
786-0 = assay: NCI 60-cell line growth inhibition assay; type: cell-based; conditions: Homo sapiens
NCI-H23 = assay: NCI 60-cell line growth inhibition assay; type: cell-based; conditions: Homo sapiens
CCRF-CEM = assay: NCI 60-cell line growth inhibition assay; type: cell-based; conditions: Homo sapiens
SK-MEL-2 = assay: NCI 60-cell line growth inhibition assay; type: cell-based; conditions: Homo sapiens
SNB-19 = assay: NCI 60-cell line growth inhibition assay; type: cell-based; conditions: Homo sapiens
SK-OV-3 = assay: NCI 60-cell line growth inhibition assay; type: cell-based; conditions: Homo sapiens; Ovarian, SK-OV-3
SF-539 = assay: NCI 60-cell line growth inhibition assay; type: cell-based; conditions: Homo sapiens
OVCAR-3 = assay: NCI 60-cell line growth inhibition assay; type: cell-based; conditions: Homo sapiens
COLO 205 = assay: NCI 60-cell line growth inhibition assay; type: cell-based; conditions: Homo sapiens
KM12 = assay: NCI 60-cell line growth inhibition assay; type: cell-based; conditions: Homo sapiens
HCC-2998 = assay: NCI 60-cell line growth inhibition assay; type: cell-based; conditions: Homo sapiens
UACC-257 = assay: NCI 60-cell line growth inhibition assay; type: cell-based; conditions: Homo sapiens
SK-MEL-5 = assay: NCI 60-cell line growth inhibition assay; type: cell-based; conditions: Homo sapiens; Melanoma, SK-MEL-5
SK-MEL-28 = assay: NCI 60-cell line growth inhibition assay; type: cell-based; conditions: Homo sapiens
NCI/ADR-RES = assay: NCI 60-cell line growth inhibition assay; type: cell-based; conditions: Homo sapiens
HL-60(TB) = assay: NCI 60-cell line growth inhibition assay; type: cell-based; conditions: Homo sapiens; HL-60(TB) (Leukemia)
SN12C = assay: NCI 60-cell line growth inhibition assay; type: cell-based; conditions: Homo sapiens
NCI-H522 = assay: NCI 60-cell line growth inhibition assay; type: cell-based; conditions: Homo sapiens; NCI-H522 (Non-Small Cell Lung)
HT29 = assay: NCI 60-cell line growth inhibition assay; type: cell-based; conditions: Homo sapiens, HT-29
TK-10 = assay: NCI 60-cell line growth inhibition assay; type: cell-based; conditions: Homo sapiens; TK-10 (Renal)
SR = assay: NCI 60-cell line growth inhibition assay; type: cell-based; conditions: Homo sapiens

For `CC[C@H](CO)Nc1nc(NCc2ccc(-c3ccccc3)cc2)c2ncn(C(C)C)c2n1` [Compound 73], the GI50 (SF-268; CNS, SF-268) was 160 nM, the GI50 (SNB-75; CNS, SNB-75) was 20 nM and the GI50 (RXF 393; Renal, RXF 393) was 90 nM. The GI50 (HOP-62; Non-Small Cell Lung, HOP-62) was 60 nM, the “IP Score” value [1] was 2 and the SC score [1] was 0. The GI50 (NCI-H460) was 400 nM, the GI50 (A549/ATCC; Non-Small Cell Lung, A549/ATCC) was 30 nM and the GI50 (MALME-3M) was 270 nM. It also gave a GI50 (MDA-MB-231/ATCC; Breast, MDA-MB-231/ATCC) of 500 nM, a GI50 (CAKI-1) of 1660 nM and a GI50 (OVCAR-4; Ovarian, OVCAR-4) of 320 nM. For the same molecule, the GI50 (A498; Renal, A498) was 2880 nM, the GI50 (NCI-H226; Non-Small Cell Lung, NCI-H226) was 220 nM and the GI50 (OVCAR-5; Ovarian, OVCAR-5) was 250 nM. It also gave a GI50 (MDA-N; Breast, MDA-N) of 130 nM, a GI50 (RPMI-8226; Leukemia, RPMI-8226) of 30 nM and a GI50 (T-47D; Breast, T-47D) of 250 nM. For the same molecule, the GI50 (HS 578T; Breast, HS 578T) was 100 nM, the GI50 (HCT-116; Colon, HCT-116) was 200 nM and the GI50 (786-0; Renal, 786-0) was 200 nM. It also gave a GI50 (NCI-H23; Non-Small Cell Lung, NCI-H23) of 320 nM, a GI50 (CCRF-CEM; Leukemia, CCRF-CEM) of 250 nM and a GI50 (SK-MEL-2; Melanoma, SK-MEL-2) of 630 nM. The GI50 (SNB-19; CNS, SNB-19) was 430 nM, the GI50 (SK-OV-3) was 950 nM and the GI50 (SF-539; CNS, SF-539) was 760 nM. It also gave a GI50 (OVCAR-3; Ovarian, OVCAR-3) of 300 nM, a GI50 (COLO 205; Colon, COLO 205) of 280 nM and a GI50 (KM12; Colon, KM12) of 130 nM. The GI50 (HCC-2998; Colon, HCC-2998) was 200 nM, the GI50 (UACC-257; Melanoma, UACC-257) was 160 nM and the GI50 (SK-MEL-5) was 250 nM. The GI50 (SK-MEL-28; Melanoma, SK-MEL-28) was 450 nM and the GI50 (NCI/ADR-RES; Breast, NCI/ADR-RES) was 400 nM.
`CC(C)n1cnc2c(NCc3ccc(-c4ccsc4)cc3)nc(N[C@H]3CC[C@H](N)CC3)nc21` [Compound 12] was tested, and the GI50 (SF-268; SF-268 (CNS)) was less than 5 nM, the GI50 (SNB-75; SNB-75 (CNS)) was less than 5 nM and the GI50 (RXF 393; RXF 393 (Renal)) was less than 5 nM. The GI50 (HOP-62; HOP-62 (Non-Small Cell Lung)) was less than 5 nM, the “Cell Types Killed” value [1] was “MDA-MB-435” and the “IP Score” value [1] was 26. For the same molecule, the SC score [1] was 4, the GI50 (HL-60(TB)) was less than 5 nM and the GI50 (A549/ATCC; A549/ATCC (Non-Small Cell Lung)) was less than 5 nM. For the same molecule, the GI50 (MDA-MB-231/ATCC; MDA-MB-231/ATCC (Breast)) was less than 5 nM, the GI50 (SN12C; SN12C (Renal)) was less than 5 nM and the GI50 (OVCAR-4; OVCAR-4 (Ovarian)) was less than 5 nM. It also gave a GI50 (A498; A498 (Renal)) of 16 nM, a GI50 (NCI-H226; NCI-H226 (Non-Small Cell Lung)) of 21 nM and a GI50 (OVCAR-5; OVCAR-5 (Ovarian)) of 17 nM. It also gave a GI50 (NCI-H522) of less than 5 nM, a GI50 (MDA-N; MDA-N (Breast)) of less than 5 nM and a GI50 (RPMI-8226; RPMI-8226 (Leukemia)) of less than 5 nM. The GI50 (T-47D; T-47D (Breast)) was 8.8 nM, the GI50 (HS 578T; HS 578T (Breast)) was less than 5 nM and the GI50 (HT29; HT29 (Colon)) was less than 5 nM. It also gave a GI50 (HCT-116; HCT-116 (Colon)) of 8.9 nM, a GI50 (786-0; 786-0 (Renal)) of 6.5 nM and a GI50 (TK-10) of 10 nM. It also gave a GI50 (NCI-H23; NCI-H23 (Non-Small Cell Lung)) of less than 5 nM, a GI50 (CCRF-CEM; CCRF-CEM (Leukemia)) of less than 5 nM and a GI50 (SK-MEL-2; SK-MEL-2 (Melanoma)) of 9.6 nM. The GI50 (SNB-19; SNB-19 (CNS)) was 16 nM, the GI50 (SR; SR (Leukemia)) was less than 5 nM and the GI50 (SF-539; SF-539 (CNS)) was 22 nM. For the same molecule, the GI50 (OVCAR-3; OVCAR-3 (Ovarian)) was 12 nM, the GI50 (COLO 205; COLO 205 (Colon)) was less than 5 nM and the GI50 (KM12; KM12 (Colon)) was less than 5 nM. It also gave a GI50 (HCC-2998; HCC-2998 (Colon)) of less than 5 nM, a GI50 (UACC-257; UACC-257 (Melanoma)) of 8 nM and a GI50 (SK-MEL-28; SK-MEL-28 (Melanoma)) of 10 nM. It also gave a GI50 (NCI/ADR-RES; NCI/ADR-RES (Breast)) of 1260 nM.
Molecule `CC[C@H](CO)Nc1nc(NCc2ccc(-c3ccccn3)cc2)c2ncn(C(C)C)c2n1` [Compound 17] has a GI50 (SF-268; CNS, SF-268) of 40 nM, a GI50 (SNB-75; CNS, SNB-75) of 20 nM and a GI50 (RXF 393; Renal, RXF 393) of 20 nM. For the same molecule, the GI50 (HOP-62; Non-Small Cell Lung, HOP-62) was 200 nM, the “IP Score” value [1] was 8 and the SC score [1] was 0. For the same molecule, the GI50 (NCI-H460) was 410 nM, the GI50 (A549/ATCC; Non-Small Cell Lung, A549/ATCC) was 30 nM and the GI50 (MALME-3M) was 20000 nM. For the same molecule, the GI50 (CAKI-1) was 130 nM, the GI50 (SN12C; Renal, SN12C) was 560 nM and the GI50 (OVCAR-4; Ovarian, OVCAR-4) was 320 nM. The GI50 (A498; Renal, A498) was 1580 nM, the GI50 (NCI-H226; Non-Small Cell Lung, NCI-H226) was 110 nM and the GI50 (OVCAR-5; Ovarian, OVCAR-5) was 260 nM. The GI50 (MDA-N; Breast, MDA-N) was 110 nM, the GI50 (RPMI-8226; Leukemia, RPMI-8226) was 30 nM and the GI50 (T-47D; Breast, T-47D) was 130 nM. The GI50 (HS 578T; Breast, HS 578T) was 6310 nM, the GI50 (HT29; Colon, HT29) was 100 nM and the GI50 (HCT-116; Colon, HCT-116) was 160 nM. For the same molecule, the GI50 (786-0; Renal, 786-0) was 250 nM, the GI50 (NCI-H23; Non-Small Cell Lung, NCI-H23) was 160 nM and the GI50 (CCRF-CEM; Leukemia, CCRF-CEM) was 160 nM. The GI50 (SNB-19; CNS, SNB-19) was 140 nM, the GI50 (SK-OV-3) was 400 nM and the GI50 (SR; Leukemia, SR) was 500 nM. For the same molecule, the GI50 (SF-539; CNS, SF-539) was 400 nM, the GI50 (OVCAR-3; Ovarian, OVCAR-3) was 650 nM and the GI50 (COLO 205; Colon, COLO 205) was 50 nM. For the same molecule, the GI50 (KM12; Colon, KM12) was 30 nM, the GI50 (HCC-2998; Colon, HCC-2998) was 30 nM and the GI50 (UACC-257; Melanoma, UACC-257) was 200 nM. The GI50 (SK-MEL-5) was 320 nM, the GI50 (SK-MEL-28; Melanoma, SK-MEL-28) was 120 nM and the GI50 (NCI/ADR-RES; Breast, NCI/ADR-RES) was 280 nM.
